Source: publication PMC7838546, “A Thermostable, Modified Cathelicidin-Derived Peptide With Enhanced Membrane-Active Activity Against Salmonella enterica serovar Typhimurium” (Frontiers in Microbiology, 2021)
Where two headings read alike, the source gives them in different places. Ends that are not written are not given here.

What was measured:
[1] = test system: S. enterica serovar Typhimurium ATCC 13311; format: cell-based, Salmonella enterica serovar Typhimurium
Description: (§1) A modified version of the National Committee for Clinical Laboratory Standards (NCCLS) broth microdilution method ([Steinberg et al., 1997]) was used to determine the minimum inhibitory concentrations (MICs) of peptide and compared to that of nisin. Fifty microliters of two-fold serial dilutions of each peptide [0.98–250 μg/ml in 0.01% (v/v) acetic acid and 0.2% (w/v) bovine serum albumin (BSA, Sigma-Aldrich, MO, United States)], were incubated with 50 μl of bacterial suspensions (approximately 10^7 CFU/ml) at 37°C for 24 h in a shaking incubator. MICs were taken as the lowest concentration of peptide at which growth was inhibited as observed by visual inspection. Bacterial cultures without peptides and uncultured broth were used as positive and negative controls, respectively. Minimal bactericidal concentrations (MBCs) were determined using a colony count assay ([Clinical Laboratory Standards Institute [CLSI], 2015]). Fifty microliters of samples from each non-turbid well in the MIC determination experiment was plated on Mueller Hinton Agar (MHA) and colonies were observed after overnight incubation at 37°C. MBCs were designated as the least concentration showing no colony growth on the plate. All of experiments were performed in triplicate.
The stability of P7 was tested by determining its antibacterial activity after exposure to different environmental conditions (high salt concentration, different ranges of pH, proteolytic enzymes and high temperatures) as previously described ([Shwaiki et al., 2020]). To test the effect of salts on the antibacterial activity of P7, 10^7 CFU/ml of S. enterica serovar Typhimurium ATCC 13311 was exposed to two-fold serially diluted concentrations (0.98–250 μg/ml) of P7 in the presence of different salts including NaCl (150 mM), KCl (4.5 mM), MgCl2 (1 mM), NH4Cl (6 μM), ZnCl2 (8 μM), FeCl3 (4 μM), and CaCl2 ([…]) ([Xu et al., 2014]). To determine pH stability, the pH of the peptide’s solution was adjusted to 3, 5, 7, 9, and 11 using 1 M NaOH or 1 M acetic acid (CH3COOH). P7 were incubated in the different pH conditions for 1 h, then transferred to inoculated MHB for antibacterial testing ([Chen et al., 2020]), There was no change of the pH following the addition of peptide. To determine the sensitivity of peptide to proteolytic enzymes, the residual activity of P7 was measured after incubation the peptide with 1 mg/ml (final concentration) of proteolytic enzymes (pepsin or trypsin) at 37°C for 1 h and heat denaturation at 80°C for 1 h. To study thermostability, peptides were pre-incubated without bacteria at various temperatures (40, 60, 80, and 100°C) for 1 h and left to cool for 30 min before testing. After these treatments, the antibacterial assays were carried out and MICs determined as described in section “Antibacterial activity assay.”

[2] = test system: human red blood cells (hRBCs); conditions: highest concentration tested 250 μg/ml, ref Klubthawee et al., 2020; cited from earlier work
Excerpt: Recently, a 12-mer α-helical, cationic AMP (‘P7’) was designed based on the cathelicidin family using a template-modified strategy, and subsequently modified by truncation and amino acid substitution ([Klubthawee et al., 2020]). […] Furthermore, P7 sho ...

[3] = test system: S. enterica serovar 4,5,12:i:- H2-067 (foodborne isolate); assay: MIC/MBC, broth microdilution and colony count; format: cell-based, Salmonella enterica serovar 4,5,12:i:-; conditions: H2-067, pork kidney, resistant Amp, T, broth microdilution, 37°C, 24 h
Description: (§2) Salmonella enterica serovar Typhimurium ATCC 13311, 24 drug-resistant foodborne and eleven drug-resistant human borne S. enterica serovar Typhimurium and 4,5,12:i:- isolates (Table 1) were used as test microorganisms. They were previously isolated for molecular characterization in 2014 and kindly provided by Dr. Soraya Chaturongakul (Mahidol University, Thailand) ([Huoy et al., 2014]). All bacteria were cultured in Tryptic Soy Broth (TSB) and incubated at 37°C for 18 h. Mueller Hinton Broth (MHB) was then used to wash and rinse the bacteria. The bacterial suspensions were then diluted to obtain concentrations of 10^7 CFU/ml for inoculations.
as §1

[4] = test system: S. enterica serovar Typhimurium H1-001 (clinical isolate); assay: MIC/MBC, broth microdilution and colony count; format: cell-based, Salmonella enterica serovar Typhimurium; conditions: H1-001, blood, resistant Amp, Ctx, C, Cp, NA, T, intermediate Amc, broth microdilution, 37°C, 24 h
Description: as §2, §1

[5] = test system: S. enterica serovar Typhimurium H1-006 (clinical isolate); assay: MIC/MBC, broth microdilution and colony count; format: cell-based, Salmonella enterica serovar Typhimurium; conditions: H1-006, blood; resistant NA; intermediate S, Cp; broth microdilution, 37°C, 24 h
Description: as §2, §1

[6] = test system: S. enterica serovar Typhimurium H1-041 (clinical isolate); assay: MIC/MBC, broth microdilution and colony count; format: cell-based, Salmonella enterica serovar Typhimurium; conditions: H1-041, stool, resistant Amp, Ctx, C, T, SxT, intermediate Amc, Cp, NA, broth microdilution, 37°C, 24 h
Description: as §2, §1

[7] = test system: S. enterica serovar Typhimurium H1-015 (clinical isolate); assay: MIC/MBC, broth microdilution and colony count; format: cell-based, Salmonella enterica serovar Typhimurium; conditions: H1-015, boot swab, resistant Amp, intermediate Cp, broth microdilution, 37°C, 24 h
Description: as §2, §1

[8] = test system: S. enterica serovar Typhimurium H1-062 (clinical isolate); assay: MIC/MBC, broth microdilution and colony count; format: cell-based, Salmonella enterica serovar Typhimurium; conditions: H1-062, stool, resistant Amc, Amp, Ctx, C, NA, T, intermediate Cp, broth microdilution, 37°C, 24 h
Description: as §2, §1

[9] = peptide pre-incubated at 40°C for 1 h, cooled 30 min

KIAKRIWKILRR-NH2 [P7]
MIC ([1]; ATCC 13311, 1 h): 7.81 µg/mL | MBC ([1]; ATCC 13311, 1 h, pH 3): 15.63 µg/mL | MIC ([1]; ATCC 13311, 1 h, pH 3): 7.81 µg/mL | MBC ([1]; ATCC 13311, 1 h, pH 5): 7.81 µg/mL | MIC ([1]; ATCC 13311, 1 h, pH 5): 7.81 µg/mL | MBC ([1]; ATCC 13311, 1 h, pH 7): 7.81 µg/mL | MIC ([1]; ATCC 13311, 1 h, pH 7): 7.81 µg/mL | MBC ([1]; ATCC 13311, 1 h, pH 9): 7.81 µg/mL | MIC ([1]; ATCC 13311, 1 h, pH 9): 7.81 µg/mL | MBC ([1]; ATCC 13311, 1 h, pH 11): 15.63 µg/mL | MIC ([1]; ATCC 13311, 1 h, pH 11): 7.81 µg/mL | MIC ([1]; ATCC 13311, 24 h): 7.81 µg/mL | MBC ([1]; Control (no salt)): 3.91 µg/mL | MIC ([1]; Control (no salt)): 3.91 µg/mL | MIC ([1]; MgCl2 (1 mM)): 31.25 µg/mL | MIC ([1]; NaCl (150 mM)): 31.25 µg/mL | MIC ([1]; after pepsin 1 mg/ml, 37°C, 1 h, then heat denaturation 80°C): 31.25 µg/mL | MIC ([1]; after trypsin 1 mg/ml, 37°C, 1 h, then heat denaturation 80°C): 31.25 µg/mL | MBC [1, 9]: 3.91 µg/mL | MIC [1, 9]: 3.91 µg/mL | MIC ([1]; peptide pre-incubated at 60°C for 1 h, cooled 30 min): 3.91 µg/mL | Hemolysis [2]: less than 5%

Nisin: authorized food preservative peptide, binds lipid II and forms membrane pores (ITSISLCTPGCKTGALMGCNMKTATCHCSIHVSK; cysteine pairing not given here; also: lantibiotic nisin-A; UniProt P13068 24-57, looked up)
MIC [3]: >1000 µg/mL | MIC [4]: >1000 µg/mL | MIC [5]: >1000 µg/mL | MIC [6]: >1000 µg/mL | MIC [7]: >1000 µg/mL | MIC [8]: >1000 µg/mL
